The source of these data is ChEMBL document CHEMBL1149404, “Design and synthesis of substituted phenylpropanoic acid derivatives as human peroxisome proliferator-activated receptor alpha/delta dual agonists” (Bioorg Med Chem Lett, 2006).

Molecules are shown by their SMILES. Where only a bound is given, the exact number is not on record here.

Test [1] concerns the target T1, Peroxisome proliferator-activated receptor gamma (Homo sapiens, UniProt P37231).
T1 sequence (P37231 whole entry): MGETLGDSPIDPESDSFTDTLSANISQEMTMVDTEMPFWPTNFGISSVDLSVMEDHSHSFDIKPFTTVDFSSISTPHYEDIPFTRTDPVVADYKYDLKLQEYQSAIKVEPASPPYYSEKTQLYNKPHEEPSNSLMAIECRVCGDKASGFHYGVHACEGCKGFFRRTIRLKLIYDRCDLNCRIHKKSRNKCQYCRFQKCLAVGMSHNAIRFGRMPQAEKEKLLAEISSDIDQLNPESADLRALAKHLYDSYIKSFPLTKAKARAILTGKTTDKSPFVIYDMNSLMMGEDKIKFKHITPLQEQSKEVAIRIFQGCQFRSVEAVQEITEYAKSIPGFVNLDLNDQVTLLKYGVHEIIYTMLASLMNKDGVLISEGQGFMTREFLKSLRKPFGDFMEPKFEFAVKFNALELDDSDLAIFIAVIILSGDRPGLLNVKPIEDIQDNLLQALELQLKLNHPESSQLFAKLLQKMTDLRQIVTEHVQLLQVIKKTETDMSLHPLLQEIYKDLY
In words: Agonist activity at PPARgamma transfected in HEK293 cells. It is filed as functional, cell-based.

Test [2] addresses T2, Peroxisome proliferator-activated receptor alpha (Homo sapiens, UniProt Q07869).
T2 sequence (Q07869 whole entry): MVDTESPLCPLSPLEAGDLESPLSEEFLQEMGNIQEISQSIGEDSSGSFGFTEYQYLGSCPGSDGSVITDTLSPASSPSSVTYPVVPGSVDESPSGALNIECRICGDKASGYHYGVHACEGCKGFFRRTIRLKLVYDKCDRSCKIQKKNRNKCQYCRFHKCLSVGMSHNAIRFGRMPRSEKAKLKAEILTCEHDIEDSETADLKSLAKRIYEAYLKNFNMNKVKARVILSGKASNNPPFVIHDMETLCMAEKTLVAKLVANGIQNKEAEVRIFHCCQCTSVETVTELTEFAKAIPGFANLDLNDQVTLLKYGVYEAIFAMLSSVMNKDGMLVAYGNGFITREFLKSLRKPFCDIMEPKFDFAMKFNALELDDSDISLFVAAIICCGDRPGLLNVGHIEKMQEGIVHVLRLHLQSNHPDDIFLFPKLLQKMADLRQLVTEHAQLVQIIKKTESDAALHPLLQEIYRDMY
The experiment in a line: Agonist activity at PPARalpha transfected in HEK293 cells. The test is classed as functional, cell-based.

The target in test [3] is T3, Peroxisome proliferator-activated receptor delta (Homo sapiens, UniProt Q03181).
T3 sequence (Q03181 whole entry): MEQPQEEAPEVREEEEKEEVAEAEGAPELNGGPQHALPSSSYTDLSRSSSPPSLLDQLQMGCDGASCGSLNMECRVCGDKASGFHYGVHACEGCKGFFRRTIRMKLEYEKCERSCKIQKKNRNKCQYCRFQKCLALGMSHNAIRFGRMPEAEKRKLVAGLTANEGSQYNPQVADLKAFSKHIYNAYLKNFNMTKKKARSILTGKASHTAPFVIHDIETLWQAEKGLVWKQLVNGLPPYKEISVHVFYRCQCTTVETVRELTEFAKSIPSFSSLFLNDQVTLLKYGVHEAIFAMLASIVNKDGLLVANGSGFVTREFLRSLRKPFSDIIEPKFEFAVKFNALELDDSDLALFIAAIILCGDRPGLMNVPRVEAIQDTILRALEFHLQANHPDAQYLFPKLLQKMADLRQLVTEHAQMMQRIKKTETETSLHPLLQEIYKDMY
The experiment in a line: Agonist activity at PPARdelta transfected in HEK293 cells. The test is classed as functional, cell-based.

Test [4] addresses T2, Peroxisome proliferator-activated receptor alpha. The experiment in a line: Agonist activity at PPARalpha transfected in HEK293 cells at 1 uM. The test is classed as functional, cell-based.
In test [5] the target is T1, Peroxisome proliferator-activated receptor gamma. The experiment in a line: Agonist activity at PPARgamma transfected in HEK293 cells at 1 uM. It is filed as functional, cell-based.
The target of test [6] is T3, Peroxisome proliferator-activated receptor delta. The experiment in a line: Agonist activity at PPARdelta transfected in HEK293 cells at 1 uM. The test is classed as functional, cell-based.
The target of test [7] is T4, Peroxisome proliferator-activated receptor alpha (Mus musculus, UniProt P23204).
T4 sequence (P23204 whole entry): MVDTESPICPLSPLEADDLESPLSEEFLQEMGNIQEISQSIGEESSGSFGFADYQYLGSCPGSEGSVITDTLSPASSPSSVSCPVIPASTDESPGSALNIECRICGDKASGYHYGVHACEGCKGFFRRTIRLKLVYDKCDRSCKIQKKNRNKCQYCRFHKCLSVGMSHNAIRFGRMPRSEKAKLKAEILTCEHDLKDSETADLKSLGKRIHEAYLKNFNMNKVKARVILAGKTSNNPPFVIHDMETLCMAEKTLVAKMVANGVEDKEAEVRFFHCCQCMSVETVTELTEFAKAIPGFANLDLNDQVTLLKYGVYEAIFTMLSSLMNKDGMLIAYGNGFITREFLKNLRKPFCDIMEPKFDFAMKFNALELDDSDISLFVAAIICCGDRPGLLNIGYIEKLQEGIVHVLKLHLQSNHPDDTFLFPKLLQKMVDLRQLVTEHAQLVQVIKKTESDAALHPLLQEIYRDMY
The experiment in a line: Agonist activity at mouse PPARalpha transfected in HEK293 cells. It is filed as functional, cell-based.

Test [8] deals with T5, Peroxisome proliferator-activated receptor delta (Mus musculus, UniProt P35396).
T5 sequence (P35396 whole entry): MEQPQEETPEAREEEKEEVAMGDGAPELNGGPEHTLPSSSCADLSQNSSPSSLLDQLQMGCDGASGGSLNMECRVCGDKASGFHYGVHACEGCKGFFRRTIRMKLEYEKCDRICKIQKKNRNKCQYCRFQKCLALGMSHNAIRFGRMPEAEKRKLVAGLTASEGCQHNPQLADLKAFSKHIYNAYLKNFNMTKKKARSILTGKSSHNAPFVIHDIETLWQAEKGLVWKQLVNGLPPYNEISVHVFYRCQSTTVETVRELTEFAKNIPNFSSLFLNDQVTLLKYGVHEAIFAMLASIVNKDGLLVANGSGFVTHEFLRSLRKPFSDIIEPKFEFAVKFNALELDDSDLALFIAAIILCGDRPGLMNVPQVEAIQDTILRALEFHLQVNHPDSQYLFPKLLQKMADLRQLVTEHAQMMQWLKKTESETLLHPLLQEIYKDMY
In words: Agonist activity at mouse PPARdelta transfected in HEK293 cells. The test is classed as functional, cell-based.

Test [9] deals with Peroxisome proliferator-activated receptor alpha (Homo sapiens, UniProt Q07869, I272F). The experiment in a line: Agonist activity at human PPARalpha containing mutant I272F domain transfected in HEK293 cells.
Peroxisome proliferator-activated receptor alpha (Homo sapiens, UniProt Q07869, I272F), sequence (Q07869 whole entry I272F, the tested form may be a part): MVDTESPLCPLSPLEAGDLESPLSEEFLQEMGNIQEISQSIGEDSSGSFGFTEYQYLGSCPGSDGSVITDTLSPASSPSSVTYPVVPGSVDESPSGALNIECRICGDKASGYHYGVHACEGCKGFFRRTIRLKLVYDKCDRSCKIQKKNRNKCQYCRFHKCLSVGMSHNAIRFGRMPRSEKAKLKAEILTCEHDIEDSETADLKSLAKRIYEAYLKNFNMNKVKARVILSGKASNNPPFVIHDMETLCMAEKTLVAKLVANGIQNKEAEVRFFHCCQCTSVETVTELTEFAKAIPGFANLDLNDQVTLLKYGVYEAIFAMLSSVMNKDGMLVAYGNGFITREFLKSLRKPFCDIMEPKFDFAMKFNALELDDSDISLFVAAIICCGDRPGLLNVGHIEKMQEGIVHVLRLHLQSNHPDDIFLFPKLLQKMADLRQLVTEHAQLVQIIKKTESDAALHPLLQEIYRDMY

For `CCC(Cc1ccc(OC)c(CNC(=O)c2ccc(C(F)(F)F)cc2)c1)C(=O)O` (stereo not drawn), the EC50 is 2000 nM in [1], 10 nM in [2] and 130 nM in test [3].
As for `CCC(Cc1ccc(F)c(C(=O)NCc2ccc(C(F)(F)F)cc2)c1)C(=O)O` (stereo not drawn), the EC50 result in test [4], in test [5] and in test [6] was “Not Active” throughout.
For `CCC(Cc1ccc(OC)c(C(=O)NCc2ccc(C(F)(F)F)c(F)c2)c1)C(=O)O` (stereo not drawn), the EC50 worked out at 1600 nM in test [1], 25 nM in test [2] and 500 nM in test [3].
Take `CCC(Cc1ccc(OC)c(C(=O)NCc2ccc(C(F)(F)F)cc2F)c1)C(=O)O` (stereo not drawn): the EC50 in test [1] turned out to be 500 nM; in test [2], 20 nM; in [3], 1000 nM.
Turning to `CC[C@@H](Cc1ccc(OC)c(CNC(=O)c2ccc(C(F)(F)F)c(F)c2)c1)C(=O)O`, the EC50 is 1000 nM in [7]; 130 nM in [8]; 630 nM in test [9]; 10 nM in [2]; 40 nM in test [3].
`CC[C@H](Cc1ccc(OC)c(CNC(=O)c2ccc(C(F)(F)F)c(F)c2)c1)C(=O)O`: the half-maximal effective concentration (EC50) was over 10000 nM in test [1], 180 nM in test [2] and 700 nM in test [3].
`CCC(Cc1ccc(OC)c(CNC(=O)c2ccc(F)c(C(F)(F)F)c2)c1)C(=O)O` (stereo not drawn): the EC50 in test [1] was over 10000 nM.
For the compound `CCC(Cc1ccc(OC)c(C(=O)NCc2ccc(C(F)(F)F)cc2)c1)C(=O)O` (racemic), the EC50 in test [2] stood at 70 nM; in test [3] it was 700 nM.

The EC50 is the midpoint of the concentration-response curve. Read a high EC50 as weaker potency.
